This is an account of results in patent US20090028839A1, “Compositions and methods for the prophylaxis and treatment of vaginal infections” (priority 2004, published 2009).

What all share (format): cell-based
The subject of one assay is Staphylococcus sp. The experiment in a line: Agar-well inhibition zones of Lactobacillus culture supernatants. As to conditions: 400 μl culture supernatant in agar well. The procedure:
(§1) To test for their antimicrobial activity, all Lactobacillus isolates were grown anaerobically (to eliminate H2O2 production) in an MRS broth for 24 hours. The supernatants were collected and filter sterilized. Agar plates (Human Blood Tween agar for G.vaginalis, and Tryptic Soy agar with 5% sheep blood for other organisms) were inoculated with tested bacteria and 400 μl of each supernatant was added into the wells punched in the agar plates. The antimicrobial activity was determined by the size of the inhibition zones, similar to the disk method used for the determination of antibiotic activity. From our collection of clinical lactobacilli strains, we selected the strain identified as L. rhamnosus 160 since its extracellular product was characterized as having the highest antimicrobial activity, as shown in Table 1.

Another assay deals with G. vaginalis ATCC 14018. Described as above. Conditions: 400 μl culture supernatant in agar well. The procedure: as §1
For a further assay, the system named is E. coli. The description is as above. Conditions: 400 μl culture supernatant in agar well. The procedure:
as §1

The test system of a further assay is Group B Streptococci. The description is as above. Conditions: 400 μl culture supernatant in agar well. The procedure: as §1
Assay [1] has as its system clinical isolates of G. vaginalis. The assay can be described thus: Antibiotic resistance of clinical isolates. The source says:
The ability of G. vaginalis to induce HIV expression in vitro was investigated in chronically infected U1 cells by measuring HIV p24 antigen concentration. […] Moreover, we have also determined that clinical isolates of G. vaginalis are often resistant to metronidazol (73%), and clindamycin (38%), two drugs of choice for treatment of BV. […] Thus, the major BV-associated pathogens are able to increase sensitivity of human cells to HIV.

In the case of `CC(O)C(=O)O` (stereo not drawn) [Lactic acid], the Zone of inhibition in the assay with Staphylococcus sp., in the assay with G. vaginalis ATCC 14018, in the assay on E. coli and with Group B Streptococci was 1.5 mm throughout.
In the case of `CCC[C@@H]1C[C@@H](C(=O)N[C@@H]([C@H]2O[C@H](SC)[C@H](O)[C@@H](O)[C@H]2O)[C@H](C)Cl)N(C)C1` [clindamycin], the “Share of clinical isolates of G. vaginalis resistant” value in assay [1] is 38%.
Consider `Cc1ncc([N+](=O)[O-])n1CCO` [metronidazol], for which the “Share of clinical isolates of G. vaginalis resistant” value in assay [1] is given as 73%.
